The numbers were not newly measured in patent US20150104527A1, “AQUEOUS IONIC SOLUTION CONTAINING SEAWATER AND AT LEAST ONE COMPOUND THAT IS ORIGINALLY IMMISCIBLE WITH SEA WATER” (LABORATOIRE DE LA MER, priority 2011, published 2015), which cites them from elsewhere.

For one data set, the system named is human neutrophiles. Particulars: even at low concentration; Boston et al, 2003.
The next data set has as its system nasal mucus membrane. Particulars: observed in patients even for short use; Graf P et al, 1999.

In the case of benzalkonium chloride, the “toxicity for human neutrophiles” value in the data set with human neutrophiles is given as “toxic”. For the same substance, the “effect on the nasal mucus membrane” value in the data set with nasal mucus membrane is recorded as “deleterious effects”.
